Target: T1, 17β-HSD10 (Homo sapiens, UniProt Q99714)
T1 construct: Histev (histidine tag with TEV site) (N, cleaved yes); made in house; host or cells: E. coli BL21-CodonPlus
T1 sequence (Q99714 1-261): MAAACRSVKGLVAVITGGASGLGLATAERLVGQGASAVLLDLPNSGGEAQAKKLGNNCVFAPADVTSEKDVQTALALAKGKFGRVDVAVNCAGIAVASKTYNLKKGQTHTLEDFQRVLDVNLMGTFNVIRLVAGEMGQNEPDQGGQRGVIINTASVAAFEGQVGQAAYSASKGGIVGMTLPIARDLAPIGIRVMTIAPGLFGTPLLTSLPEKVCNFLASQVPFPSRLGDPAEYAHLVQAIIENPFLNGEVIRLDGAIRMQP
Assay: 17β-HSD10 (ABAD) enzyme inhibition assay, NADH oxidation read at 340 nm (primary screen and dose response)
Format: biochemical
Details: for EC50 / Max. Effect (%) / Hill Slope / Max. Fit / Min. Fit: recombinant 17βHSD10 enzyme assay; for Hill Slope / Max. Fit / Min. Fit: curve fit
How it was run: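 Screening used a 35 min room-temperature endpoint A340 read after compound (10 μM) and enzyme (2.5 nM, E. coli-expressed, His-tag removed) preincubated 15 min, then 100 μM NADH plus acetoacetyl-CoA added. Dose-response runs tracked absorbance kinetically 45 min; buffer pH 7.4 Tris with BSA, DTT.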

SMILES	EC50 [µM]	Max. Effect (%)	Hill Slope	Max. Fit	Min. Fit	17β-HSD10 / ABAD activity in words (SAR discussion)
CC(C)CN(C(=O)c1ccccc1F)c1cccc(NCC(N)=O)c1 [ESC1002571]	> 20	13	–	–	–	–
CNC(=O)CN(C)c1cccc(N(CC(C)C)C(=O)c2ccccc2F)c1 [ESC1002572]	11.2	65	0.98	100	2	–
CNC(=O)CNc1cccc(N(CC(C)C)C(=O)c2ccccc2F)c1 [ESC1002573]	> 20	4	–	–	–	–
COc1ccc(C(=O)N(CC(C)C)c2cccc(N(C)Cc3c[nH]cn3)c2)c(F)c1 [ESC1002576]	0.245	98	1.1	97	−3	–
CC(C)CN(C(=O)c1ccccc1F)c1cccc(N(C)CCO)c1 [ESC1002577]	8.13	72	0.95	100	−1	–
CC(C)CN(C(=O)c1ccc[nH]c1=O)c1cccc(N(C)Cc2c[nH]cn2)c1 [ESC1002614, N-[3-[1H-imidazol-4-ylmethyl(methyl)amino]phenyl]-N-isobutyl-2-oxo-1H-pyridine-3-carboxamide]	> 20	30	–	–	–	–
CC(C)CN(C(=O)c1ccccc1S(C)(=O)=O)c1cccc(N(C)Cc2c[nH]cn2)c1 [ESC1002622]	6.92	76	0.9	108	−6	–
CC(C)CN(C(=O)c1ccccc1F)c1cccc(NCc2c[nH]cn2)c1 [ESC1002631]	9.33	64	0.94	100	−6	–
CC(C)CN(C(=O)c1ccccc1F)c1cccc(NCc2c[nH]c(C(C)C)n2)c1 [ESC1002632]	> 20	18	–	–	–	–
CC(C)CN(C(=O)c1ccccc1F)c1cccc(N(C)Cc2c[nH]c(C(C)C)n2)c1 [ESC1002633]	> 20	45	0.93	100	−3	further losses in potency
C#CCN(C)c1cccc(N(CC(C)C)C(=O)c2ccccc2F)c1 [ESC1002636]	5.5	79	0.98	101	−1	–
CC(C)CN(C(=O)c1cnccn1)c1cccc(N(C)Cc2c[nH]cn2)c1 [ESC1002656, N-[3-[1H-imidazol-4-ylmethyl(methyl)amino]phenyl]-N-isobutyl-pyrazine-2-carboxamide]	> 20	45	–	–	–	–
CC(C)CN(C(=O)c1ccccc1F)c1cccc(N(C)Cc2c[nH]c(C3CC3)n2)c1 [ESC1002674]	8.32	59	1.2	80	−5	–
CC(C)CN(C(=O)c1ccccc1F)c1cccc(N(C)Cc2c[nH]nn2)c1 [ESC1002675]	4.47	75	1.2	87	−2	–
CC(C)CN(C(=O)c1ccccc1F)c1cccc(N(C)Cc2cn[nH]c2I)c1 [ESC1002687]	11	64	1	100	−6	–
CC(C)CN(C(=O)c1ccncn1)c1cccc(N(C)Cc2c[nH]cn2)c1 [ESC1002703]	8.71	52	1.3	70	−5	–
CC(C)CN(C(=O)c1ccccc1F)c1cccc(N(CCO)Cc2c[nH]cn2)c1 [ESC1002723]	5.13	81	1.1	94	0	–
CC(=O)CN(CC(C)=O)c1cccc(N(CC(C)C)C(=O)c2ccccc2F)c1 [ESC1002724]	> 20	−3	–	–	–	–
CC(C)CN(C(=O)c1ccccc1F)c1cccc(N(C)CC#N)c1 [ESC1002762]	> 20	39	–	–	–	–
CC(C)CN(C(=O)c1ccccc1F)c1cccc(NCc2nc[nH]n2)c1 [ESC1002763]	> 20	8	–	–	–	–
CC(C)CN(C(=O)c1ccccc1F)c1cccc(-n2cnnc2)c1 [ESC1002764]	> 20	4	–	–	–	–
CC(C)CN(C(=O)c1ccccc1F)c1cccc(-n2ccnc2)c1 [ESC1002765]	> 20	−2	–	–	–	–
CC(C)CN(C(=O)c1ccccc1F)c1cccc(N(C)Cc2nc[nH]n2)c1 [ESC1002770]	2.69	86	1.2	91	−4	–
CC(C)CN(C(=O)c1ccccc1F)c1cccc(N(C)Cc2c[nH]cn2)n1 [ESC1002795]	5.62	77	1.1	93	0	–
CC(C)CN(C(=O)c1ccccc1F)c1cccc(N(C)Cc2cc[nH]n2)n1 [ESC1002796]	> 20	47	1.2	100	−4	–
CC(C)CN(C(=O)c1ccccc1F)c1cncc(N(C)Cc2c[nH]cn2)c1 [ESC1002802]	> 20	20	–	–	–	–
Cc1ccc(C(=O)N(CC(C)C)c2nccc(N(C)Cc3cnc[nH]3)n2)cc1 [ESC1002817]	> 20	4	–	–	–	–
Cc1cn[nH]c1C(=O)N1CCC[C@H]1c1ccccc1 [S1−T1, 4-methyl-5-{[(2S)-2-phenylpyrrolidin-1-yl]carbonyl}-1H-pyrazole]	> 20	26.5	–	–	–	–
O=C(c1ncc[nH]1)N1CCC[C@H]1c1ccccc1 [S1−T2, 2-{[(2S)-2-phenylpyrrolidin-1-yl]carbonyl}-1H-imidazole]	> 20	6.4	–	–	–	–
